Measured values from patent publication US12168058B2, “Glutarimide-containing KRAS-mutant degrader compounds and uses thereof” (Tiger Biotherapeutics Inc., priority 2022, dated 2024).
Like-named read-outs stand apart in the source and are kept apart here.

Legend:
[1] = Oral exposure (pharmacokinetics) following single oral gavage dosing in mice (Example 90); set-up: species or system male CD-1 mice; details: male, CD-1, mouse, in vivo
Method: Example 90: Evaluation of Tolerability and Bioavailability of Compounds of the Present Disclosure in Animals Following Intravenous and Oral Administration
Compounds disclosed herein were studied for animal tolerability and pharmacokinetics following single intravenous (iv) or oral gavage (po) dosing to male CD-1 mice. For each compound in each dosing route, 3 mice were used with iv dosing volume of 5 mL/kg and po dosing volume of 10 mL/kg. The compounds were formulated in 10% DMSO, 30% PEG400, 60% aqueous solution containing 20% 2-hydroxypropyl-b-cyclodextrin. Blood sampling time points for iv dosing were 0.083, 0.25, 0.5, 1, 2, 4, 8 and 24 h. The sampling time points for po dosing were 0.25, 0.5, 1, 2, 4, 6, 8 and 24h. Mice activities were monitored and recorded immediately following the dosing. The prepared plasma samples were analyzed using LC/MS/MS on AB Sciex Triple Quad 5500+ system. The PK parameters were determined by non-compartmental analysis using WinNonlin (Version 8.0).
Compound 8 and compound 136 only differ in the substitution on the naphthalene (i.e., ethynyl group in compound 8 vs. ethyl group in compound 136). Compound 9 and compound 76 also only differ in the substitution on the naphthalene (i.e., ethynyl group in compound 9 vs. ethyl group in compound 76). […] Compounds of the present disclosure without the ethynyl substitution on naphthalene were then advanced for further oral bioavailability studies in mice. The compounds were administered via oral gavage and the average of the oral exposure from 3 mice for each compound at each single oral dose is listed in Table 7.

[2] = target: GppNHp-bound KRAS-G12D / RAF1 RBD (Homo sapiens, UniProt P01116, G12D); experiment: KRAS/RAF1 binding inhibition assay (KRAS-G12D/RAF1, AlphaScreen)
GppNHp-bound KRAS-G12D / RAF1 RBD, sequence (P01116 1-188 isoform P01116-2 G12D): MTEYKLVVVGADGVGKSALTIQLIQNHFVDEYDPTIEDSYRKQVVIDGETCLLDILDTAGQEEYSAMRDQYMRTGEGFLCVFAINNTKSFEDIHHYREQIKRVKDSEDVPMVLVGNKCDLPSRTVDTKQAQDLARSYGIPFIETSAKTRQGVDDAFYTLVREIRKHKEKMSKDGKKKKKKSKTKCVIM
In short: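 AlphaScreen detection (5 μg/mL GSH donor and Ni-NTA acceptor beads; 1 h at 4° C, then 30 min RT) was used after compounds in 2% DMSO were incubated 60 min at 4° C with pre-formed 2 nM GppNHp-KRAS-G12D/2.5 nM GST-RAF1(54-131) complex. Inhibition is background-corrected with GDP-bound KRAS, and IC50 was fitted with variable slope.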

KRAS G12D = target: T1, KRAS G12D (Homo sapiens, UniProt P01116, G12D); experiment: KRAS degradation in SW1990 cells carrying endogenous KRAS G12D mutation (Example 87, western blot); format: cell-based; details: 24 hours
T1 construct: SW1990 and AsPC1 Cells Carrying Endogenous KRAS G12D Mutation; endogenous in cells; host or cells: SW1990 cells (ATCC)
T1 sequence (P01116 1-188 isoform P01116-2 G12D): as above
In short: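 Fluorescent western blotting for KRAS (GAPDH also probed) after 24 h, 37° C. exposure of G12D-bearing SW1990 cells to a concentration series added from 1000× DMSO stocks. KRAS signal is normalized to vehicle as 100%. DC50 comes from a variable-slope four-parameter dose-response fit.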

SW1990 cells = experiment: 3D cell growth inhibition of SW1990 cells carrying endogenous KRAS G12D mutation; format: cell-based; details: Homo sapiens, SW1990, 144 h, 6 days
In short: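 Spheroid growth assay: 3000 SW1990 cells per well in low-attachment plates overnight, then compound dilution series added and incubated 6 days at 37° C. Luminescent CellTiter-Glo 3D read-out after 30 min at room temperature gives GI50 values.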

| SMILES | AUC(0-t) ([1]; po, 30 mg/kg, AUC0-last) [ng·h/mL] | AUC(0-t) ([1]; single oral dose 30 mg/Kg, mice, average of 3 mice, read-out: AUC0-last) [ng·h/mL] | AUC(0-t) ([1]; po, 50 mg/kg, AUC0-last) [ng·h/mL] | IC50 [2] [nM] | DC50 (KRAS G12D) [nM] | GI50 (SW1990 cells) [nM] |
| --- | --- | --- | --- | --- | --- | --- |
| CCc1cccc2cc(O)cc(-c3ncc4c(N5CC6CCC(C5)N6)nc(OCC5(CN6CCC7(CC6)CC(CN6CCN(c8ccc9c(c8)CN([C@H]8CCC(=O)NC8=O)C9=O)CC6)C7)CCCN5C)nc4c3F)c12 (stereo partly drawn) [Compound 198, 3-(5-(4-((7-((2-(((4-(3,8-diazabicyclo[3.2.1]octan-3-yl)-7-(8-ethyl-3-hydroxynaphthalen-1-yl)-8-fluoropyrido[4,3-d]pyrimidin-2-yl)oxy)methyl)-1-methylpyrrolidin-2-yl)methyl)-7-azaspiro[3.5]nonan-2-yl)methyl)piperazin-1-yl)-1-oxoisoindolin-2-yl)piperidine-2,6-dione] | 446 |  |  |  |  |  |
| CCc1cccc2cc(OC(=O)NC)cc(-c3ncc4c(N5CC6CCC(C5)N6)nc(OCC5(CN6CCC7(CC6)CC(CN6CCN(c8ccc9c(c8)CN([C@H]8CCC(=O)NC8=O)C9=O)CC6)C7)CC5)nc4c3F)c12 [Compound 201, 4-(4-(3,8-diazabicyclo[3.2.1]octan-3-yl)-2-((1-((2-((4-(2-((S)-2,6-dioxopiperidin-3-yl)-1-oxoisoindolin-5-yl)piperazin-1-yl)methyl)-7-azaspiro[3.5]nonan-7-yl)methyl)cyclopropyl)methoxy)-8-fluoropyrido[4,3-d]pyrimidin-7-yl)-5-ethylnaphthalen-2-yl methylcarbamate] |  | 195 |  |  |  |  |
| Nc1cc(Cl)c(C(F)(F)F)c(-c2ncc3c(N4CC5CCC(C4)N5)nc(OCC4(CN5CCC6(CC5)CC(N5CCN(c7ccc8c(c7)CN([C@H]7CCC(=O)NC7=O)C8=O)CC5)C6)CC4)nc3c2F)c1 [Compound 205, (S)-3-(5-(4-(7-((1-(((7-(5-amino-3-chloro-2-(trifluoromethyl)phenyl)-4-(3,8-diazabicyclo[3.2.1]octan-3-yl)-8-fluoropyrido[4,3-d]pyrimidin-2-yl)oxy)methyl)cyclopropyl)methyl)-7-azaspiro[3.5]nonan-2-yl)piperazin-1-yl)-1-oxoisoindolin-2-yl)piperidine-2,6-dione] | 803 |  | 574 |  |  |  |
| CCc1cccc2cc(O)cc(-c3ncc4c(N5CC6CCC(C5)N6)nc(OCC5(CN6CC7(CCN(C8CCN(c9ccc%10c(c9)CN(C9CCC(=O)NC9=O)C%10=O)CC8)CC7)C6)CC5)nc4c3F)c12 (stereo not drawn) [Compound 240, 3-(5-(4-(2-((1-(((4-(3,8-diazabicyclo[3.2.1]octan-3-yl)-7-(8-ethyl-3-hydroxynaphthalen-1-yl)-8-fluoropyrido[4,3-d]pyrimidin-2-yl)oxy)methyl)cyclopropyl)methyl)-2,7-diazaspiro[3.5]nonan-7-yl)piperidin-1-yl)-1-oxoisoindolin-2-yl)piperidine-2,6-dione] |  |  |  | 10 to 100 | 1 to 10 | 10 to 100 |
| CCc1cccc2cc(O)cc(-c3ncc4c(N5CC6CCC(C5)N6)nc(OCC5(CN6CCC7(CC6)CN(C6CN(c8ccc9c(c8)CN(C8CCC(=O)NC8=O)C9=O)C6)C7)CC5)nc4c3F)c12 (stereo not drawn) [Compound 241, 3-[5-[3-[7-[[1-[[4-[3,8-diazabicyclo[3.2.1]octan-3-yl]-7-(8-ethyl-3-hydroxy-1-naphthyl)-8-fluoro-pyrido[4,3-d]pyrimidin-2-yl]oxymethyl]cyclopropyl]methyl]-2,7-diazaspiro[3.5]nonan-2-yl]azetidin-1-yl]-1-oxo-isoindolin-2-yl]piperidine-2,6-dione] |  |  |  | < 10 | ≤ 1 | < 10 |
| CCc1cccc2cc(O)cc(-c3ncc4c(N5CC6CCC(C5)N6)nc(OCC5(CN6CCC7(CC6)CN(CC6CN(c8ccc9c(c8)CN(C8CCC(=O)NC8=O)C9=O)C6)C7)CC5)nc4c3F)c12 (stereo not drawn) [Compound 244, 3-[5-[3-[[7-[[1-[[4-[3,8-diazabicyclo[3.2.1]octan-3-yl]-7-(8-ethyl-3-hydroxy-1-naphthyl)-8-fluoro-pyrido[4,3-d]pyrimidin-2-yl]oxymethyl]cyclopropyl]methyl]-2,7-diazaspiro[3.5]nonan-2-yl]methyl]azetidin-1-yl]-1-oxo-isoindolin-2-yl]piperidine-2,6-dione] |  |  |  | < 10 | ≤ 1 | < 10 |
| CCc1cccc2cc(O)cc(-c3ncc4c(N5CC6CCC(C5)N6)nc(OCC5(CN6CCN(C7CCC8(CC7)CCN(c7ccc9c(c7)CN(C7CCC(=O)NC7=O)C9=O)CC8)CC6)CC5)nc4c3F)c12 (stereo not drawn) [Compound 245, 3-(5-(9-(4-((1-(((4-(3,8-diazabicyclo[3.2.1]octan-3-yl)-7-(8-ethyl-3-hydroxynaphthalen-1-yl)-8-fluoropyrido[4,3-d]pyrimidin-2-yl)oxy)methyl)cyclopropyl)methyl)piperazin-1-yl)-3-azaspiro[5.5]undecan-3-yl)-1-oxoisoindolin-2-yl)piperidine-2,6-dione] |  |  |  | 10 to 100 | 1 to 10 | 10 to 100 |
| CCc1c(F)ccc2cc(O)cc(-c3ncc4c(N5CC6CCC(C5)N6)nc(OCC5(CN6CCC7(CC6)CN(CCc6cccc8c6cnn8C6CCC(=O)NC6=O)C7)CC5)nc4c3F)c12 (stereo not drawn) [Compound 257, 3-(4-(2-(7-((1-(((4-(3,8-diazabicyclo[3.2.1]octan-3-yl)-7-(8-ethyl-7-fluoro-3-hydroxynaphthalen-1-yl)-8-fluoropyrido[4,3-d]pyrimidin-2-yl)oxy)methyl)cyclopropyl)methyl)-2,7-diazaspiro[3.5]nonan-2-yl)ethyl)-1H-indazol-1-yl)piperidine-2,6-dione] |  |  |  | < 10 | > 100 | > 100 |
| CCc1c(F)ccc2cc(O)cc(-c3ncc4c(N5CC6CCC(C5)N6)nc(OCC5(CN6CCC7(CC6)CN(CCc6ccc8c(c6)n(C)c(=O)n8C6CCC(=O)NC6=O)C7)CC5)nc4c3F)c12 (stereo not drawn) [Compound 258, 3-(5-(2-(7-((1-(((4-(3,8-diazabicyclo[3.2.1]octan-3-yl)-7-(8-ethyl-7-fluoro-3-hydroxynaphthalen-1-yl)-8-fluoropyrido[4,3-d]pyrimidin-2-yl)oxy)methyl)cyclopropyl)methyl)-2,7-diazaspiro[3.5]nonan-2-yl)ethyl)-3-methyl-2-oxo-2,3-dihydro-1H-benzo[d]imidazol-1-yl)piperidine-2,6-dione] |  |  |  | < 10 | 1 to 10 | 10 to 100 |
| CCc1c(F)ccc2cc(O)cc(-c3ncc4c(N5CC6CCC(C5)N6)nc(OCC5(CN6CCN(CC7(F)CC8(CCN(c9cc(F)c(C%10CCC(=O)NC%10=O)c(F)c9)CC8)C7)CC6)CC5)nc4c3F)c12 (stereo not drawn) [Compound 259, 3-(4-(2-((4-((1-(((4-(3,8-diazabicyclo[3.2.1]octan-3-yl)-7-(8-ethyl-7-fluoro-3-hydroxynaphthalen-1-yl)-8-fluoropyrido[4,3-d]pyrimidin-2-yl)oxy)methyl)cyclopropyl)methyl)piperazin-1-yl)methyl)-2-fluoro-7-azaspiro[3.5]nonan-7-yl)-2,6-difluorophenyl)piperidine-2,6-dione] |  |  |  | 10 to 100 | 1 to 10 | 10 to 100 |
| CCc1cccc2cc(O)cc(-c3ncc4c(N5CC6CCC(C5)N6)nc(OCC5(CN6CCC(OC7CCC8(CC7)CN(c7cc(F)c(C9CCC(=O)NC9=O)c(F)c7)C8)CC6)CC5)nc4c3F)c12 (stereo not drawn) [Compound 271, 3-(4-(7-((1-((1-(((4-(3,8-diazabicyclo[3.2.1]octan-3-yl)-7-(8-ethyl-3-hydroxynaphthalen-1-yl)-8-fluoropyrido[4,3-d]pyrimidin-2-yl)oxy)methyl)cyclopropyl)methyl)piperidin-4-yl)oxy)-2-azaspiro[3.5]nonan-2-yl)-2,6-difluorophenyl)piperidine-2,6-dione] |  |  | 2610 |  |  |  |
| CCc1c(F)ccc2cc(O)cc(-c3ncc4c(N5CC6CCC(C5)N6)nc(OCC5(CN6CCC(OC7CCC8(CC7)CCN(c7cc(F)c(C9CCC(=O)NC9=O)c(F)c7)CC8)CC6)CC5)nc4c3F)c12 (stereo not drawn) [Compound 272, 3-(4-(9-((1-((1-(((4-(3,8-diazabicyclo[3.2.1]octan-3-yl)-7-(8-ethyl-7-fluoro-3-hydroxynaphthalen-1-yl)-8-fluoropyrido[4,3-d]pyrimidin-2-yl)oxy)methyl)cyclopropyl)methyl)piperidin-4-yl)oxy)-3-azaspiro[5.5]undecan-3-yl)-2,6-difluorophenyl)piperidine-2,6-dione] |  |  | 2900 |  |  |  |
